Source: PubChem BioAssay (NCI)
Where “and” joins values, the source holds several entries; their conditions need not be identical. Identical values can stand only once.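 In this assay, cells in 96-well plates receive the compound at five concentrations for 48 hours. Endpoints are linearly interpolated between the surrounding concentrations. Abbreviation: GI50, concentration required for 50% inhibition of growth. TGI denotes the concentration required for complete inhibition of growth.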

Experiments:
Assay in all cases: NCI-60 cell line screen, 48 h
[1] = system: HL-60(TB) leukemia
[2] = system: HOP-62 NSCLC
[3] = system: KM12 colon
[4] = system: MALME-3M melanoma
[5] = system: MDA-MB-231 breast
[6] = system: NCI-H522 lung
[7] = system: SF-295 CNS
[8] = system: SK-MEL-2 melanoma
[9] = system: SK-MEL-5 melanoma
[10] = system: SK-OV-3 ovarian

Row | SMILES | GI50 [1] [µM] | TGI [1] | GI50 [2] | GI50 [3] | GI50 [4] | GI50 [5] | TGI [5] | GI50 [6] | TGI [6] | GI50 [7] | GI50 [8] [µM] | GI50 [9] | TGI [2] [µM] | TGI [3] [µM] | TGI [4] [µM] | TGI [7] [µM] | TGI [8] [µM] | TGI [9] [µM] | TGI [10] [µM] | GI50 [10] [µM]
1 | Cc1cc(O)c2c(c1)C[C@@H](O)C1=C2C(=O)c2c(O)ccc(OC3CC(O)C(OC4CC(OC5CCC(OC6CC(O)C(OC7CC(OC8CCC(O)C(C)O8)C(O)C(C)O7)C(C)O6)C(C)O5)C(O)C(C)O4)C(C)O3)c2C1=O (some centres undefined) | 0.112 | 0.134 µM and 0.291 µM | 1.97 µM and 2.76 µM | 1.78 µM and 1.11 µM | 1 µM and 0.197 µM | 0.433 µM and 0.251 µM | 0.259 µM and 1.49 µM and 0.549 µM | 0.0888 µM and 0.176 µM | 0.0534 µM and 0.217 µM and 0.415 µM | 1.5 µM and 3.02 µM | 0.89 | 1.33 µM and 1.2 µM | – | – | – | – | – | – | – | –
2 | CN1CCC(O)C(CNC23CC4CC(CC(C4)C2)C3)C1 (centres undefined) | – | > 100 µM | – | – | – | – | – | – | > 100 µM | – | – | – | > 100 | > 100 | > 100 | > 100 | > 100 | > 100 | > 100 | –
3 | CCC12C=CCN3CC[C@]4(C(=C(C(=O)OC)[C@@H]1Nc1ncnc5c1ncn5C1OC(COC(C)=O)C(OC(C)=O)C1OC(C)=O)Nc1ccccc14)C32 (some centres undefined) | – | 7.39 µM | – | – | – | – | – | – | 3.12 µM | – | – | – | 5.83 | 5.51 | 15.1 | 9.67 | 9.36 | 8.47 | 5.32 | –
4 | CCS[C@H]1NC(=O)C1[C@H](C)O[Si](C)(C)C(C)(C)C (some centres undefined) | – | – | – | – | – | – | – | – | – | – | – | – | > 100 | > 100 | > 100 | > 100 | > 100 | – | – | –
5 | Cc1ccc(S(=O)(=O)NCCCN(CCCNS(=O)(=O)c2ccc(C)cc2)S(=O)(=O)c2ccc(C)cc2)cc1 | – | > 100 µM | – | – | – | – | – | – | > 100 µM | – | – | – | > 100 | > 100 | > 100 | > 100 | – | – | > 100 | –
6 | CC(C)c1ccc2c(c1)CCC1C(C)(C)[C@@H](O)CC[C@]21C (some centres undefined) | – | 37.6 µM | – | – | – | – | – | – | 79 µM | – | – | – | 37.4 | 71.5 | 30.8 | 43.4 | – | 32.1 | > 100 | –
7 | CC(C)NC(=O)OCc1nnn2c1C(OC(=O)NC(C)C)CC2 (centres undefined) | – | – | – | – | – | – | – | – | > 100 µM | – | – | – | – | > 100 | > 100 | > 100 | > 100 | > 100 | > 100 | –
8 | CCOC(=O)C(C(=O)c1ccccc1-c1ccccc1C(=O)O)=P(c1ccccc1)(c1ccccc1)c1ccccc1 | – | 57.5 µM | – | – | – | – | – | – | – | – | – | – | 40.5 | – | 66.9 | 88.8 | 40.3 | 29.6 | – | –
9 | CCCCc1ccc2nc(NC(=O)OC)[nH]c2c1 | – | – | 0.126 µM | 0.0337 µM | 0.0526 µM | 0.291 µM | > 74.7 µM | 0.0612 µM | > 68.3 µM | 0.0299 µM | 0.789 | 0.035 µM | 26.6 | 1.3 | 23.7 | 0.475 | > 62.1 | 2.57 | > 47.1 | 0.0534
10 | COC(=O)C1Cc2c([nH]c3ccccc23)[C@H](CC(C)C)N1 (some centres undefined) | – | > 100 µM | – | – | – | – | – | – | > 100 µM | – | – | – | > 100 | > 100 | > 100 | > 100 | > 100 | – | > 100 | –
